US20100255580A1, “Differentiation of Human Embryonic Stem Cells” (LIFESCCAN, INC., priority 2007, published 2010)

System: human embryonic stem cells (H9, H7) on MATRIGEL
Assay: Real-time PCR of definitive endoderm markers, DE protocol on […] or fibronectin (feeder-free)
Assay type: cell-based
Details: for expression of definitive endoderm markers: with 50 ng/ml of AA, 20 ng/ml Wnt-3A or 100 nM GSK-3B inhibitor IX
Method: Real-time PCR amplification and quantitative analysis.
Final data were expressed relative to a calibrator sample.
Differentiation of embryonic stem cells to definitive endoderm was carried out as previously described in Nature Biotechnology 23, 1534-1541 (December 2005). […] In all subsequent examples unless otherwise noted, this treatment regimen will be referred to as the definite endoderm (DE) protocol. In parallel, H9, H7, or H1 cells cultured on MEF feeders were also exposed to the same DE protocol outlined above.
At day 5, the cultures were analyzed by FACS for CXCR4, E-cadherin, CD9, CD99, and N-cadherin (CD56) expression and by real time PCR for SOX-17, SOX-7, Alpha-fetal protein (AFP), CXCR4, Brychyury (Bry), gooscecoid (GSC), HNF-3 beta, and GATA4. AFP and SOX-7 are regarded as visceral endoderm markers while GATA4, HNF-3beta and SOX-17 represent definite endoderm markers and GSC, Bry, and CXCR4 represent markers of primitive streak.
In some of the cultures 20 ng/ml Wnt-3a (Catalog #1324-WN-002, R&D Systems, MN), 20 ng/ml Wnt-5a (Catalog #654-WN-010, R&D Systems, MN), 25 ng/ml Wnt-7a (Catalog #3008-WN-025, R&D Systems, MN), or 25 ng/ml Wnt-5b (Catalog #3006-WN-025, R&D Systems, MN) was added throughout the five day treatment. FIG. 24 depicts phase contrast images of H9P46 definitive endoderm culture in the presence of high concentration of (a) AA or (b) AA+20 ng/ml Wnt-3a. FIG. 25 depicts the expression of CXCR4 by FACS at day 5 for H7P44, and H9P46 lines cultured on […] (1:30 dilution) and exposed to the DE protocol+Wnt-3a (FIG. 25, panels b and d) and −Wnt-3a (FIG. 25, panels a and c).
Control cultures were not treated with Wnt-3a. FIG. 27, panel a depicts the expression of CXCR4 by FACS at day 5 in the absence of Wnt-3a, b) 10 ng/ml Wnt-3a, c) 20 ng/ml Wnt-3a and d) 50 ng/ml Wnt-3a. In the absence of Wnt-3a the expression of CXCR4 was very low. […] Real-time PCR results (FIG. 28, panel a) also confirm this finding.
In a separate study, H9 p52 cells were plated on 1:30 low growth factor […]™. For the first 2 days of the DE protocol a range of Wnt3A doses was used: 10 ng/ml, 5 ng/ml and 1 ng/ml. […] The number of cells at the end of the experiment is noted in FIG. 28, panel c.
In order to confirm that the effect of Wnt-3a was through the Wnt pathway, a GSK-3 inhibitor was used to activate the downstream targets of Wnt, such as beta catenin. […] FIG. 29, panel a depicts the expression of CXCR4 by FACS at day 5 in the absence of Wnt-3a or GSK-3B inhibitor, b) +20 ng/ml Wnt-3a, c) +1000 nM GSK-3B inhibitor IX, d) +500 nM GSK-3B inhibitor IX, e) +100 nM GSK-3B inhibitor IX, f) +10 nM GSK-3B inhibitor IX, g) +100 nM GSK-3B inhibitor IX for days 1-2, and h) +10 nM GSK-3B inhibitor IX for days 1-2.
FIG. 31 panels a-d is for H9P49 cells and panels e-f is for H1P46 cells.
Results are expressed as fold increase over untreated cells. […] Results are expressed as fold increase over untreated cells.
H9P55 cells were grown and differentiated on human fibronectin or regular growth factor […]™ (BD Biosciences). lml of DMEM/F12 (Invitrogen/GIBCO) containing 1 ug/ml of human fibronectin (R&D systems, MN) was added to each well of 6 well tissue culture treated dish. Alternatively, regular growth factor […]™ was diluted 1:10 in DMEM/F12 and 1 ml of diluted […]™ was added to each well of 6 well tissue culture treated dish. Cells were passed with collagenase. […] Real-time PCR results (FIG. 39) confirm that formation of definitive endoderm was equivalent on fibronectin and […]™ coated plates.
To determine if the addition of Wnt-3a was causing the increase in differentiation, an inhibitor of Wnt-3 signaling was added to the cultures. […] H9 cells were cultured on plates coated with Growth Factor Reduced […] at a 1:30 dilution. The plates were coated with […] for 1 hr at room temperature. […]

Compound | expression of definitive endoderm markers (H9P49) | outcome of lower doses of activin A (H9P49, with Wnt-3a or GSK-3B inhibitor IX) | definitive endoderm markers (real-time PCR) (H7 and H9, low serum+AA+/−Wnt ligands, 5 days) | Wnt3a dose sufficient to reach optimal cell expansion and definitive endoderm differentiation (H9 p52, for 2 days) [ng/mL]
O=C1Nc2cc(Br)ccc2/C1=C1/Nc2ccccc2/C1=N\O [GSK-3B inhibitor IX, reference compound] | robust expression |  |  | 
Activin A: a member of the TGFβ superfamily; R&D Systems; Group 2 = Activin A (100 ng/ml) |  | formation of extraembryonic endoderm |  | 
Wnt-3a | robust expression |  | significant upregulation | 10
